Experimental data: patent US11098035B2, “Compounds, compositions, and methods for increasing CFTR activity” (Proteostasis Therapeutics, Inc., priority 2014, dated 2021)
Where a name gives a salt, the structure may show the parent alone.

What follows are compounds tested against T1, ΔF508-CFTR (Homo sapiens, UniProt P13569, DEL508-508) (assay: hBE Equivalent Current (Ieq) Assay). Conditions: compound at 10 uM and VX-809 at 1 uM, activity as % of VX-809 (1 uM); AUC of equivalent chloride current; primary lung epithelial cells homozygous for ΔF508, 24 h treatment.
T1 construct: Primary lung epithelial cells homozygous for the Cystic Fibrosis-causing ΔF508 mutation were differentiated for a minimum of 4 weeks; endogenous in cells; host or cells: primary human bronchial (lung) epithelial cells (hBE) homozygous for ΔF508, differentiated at an air-liquid interface
T1 sequence (P13569 with tags, fused parts or gaps DEL508-508): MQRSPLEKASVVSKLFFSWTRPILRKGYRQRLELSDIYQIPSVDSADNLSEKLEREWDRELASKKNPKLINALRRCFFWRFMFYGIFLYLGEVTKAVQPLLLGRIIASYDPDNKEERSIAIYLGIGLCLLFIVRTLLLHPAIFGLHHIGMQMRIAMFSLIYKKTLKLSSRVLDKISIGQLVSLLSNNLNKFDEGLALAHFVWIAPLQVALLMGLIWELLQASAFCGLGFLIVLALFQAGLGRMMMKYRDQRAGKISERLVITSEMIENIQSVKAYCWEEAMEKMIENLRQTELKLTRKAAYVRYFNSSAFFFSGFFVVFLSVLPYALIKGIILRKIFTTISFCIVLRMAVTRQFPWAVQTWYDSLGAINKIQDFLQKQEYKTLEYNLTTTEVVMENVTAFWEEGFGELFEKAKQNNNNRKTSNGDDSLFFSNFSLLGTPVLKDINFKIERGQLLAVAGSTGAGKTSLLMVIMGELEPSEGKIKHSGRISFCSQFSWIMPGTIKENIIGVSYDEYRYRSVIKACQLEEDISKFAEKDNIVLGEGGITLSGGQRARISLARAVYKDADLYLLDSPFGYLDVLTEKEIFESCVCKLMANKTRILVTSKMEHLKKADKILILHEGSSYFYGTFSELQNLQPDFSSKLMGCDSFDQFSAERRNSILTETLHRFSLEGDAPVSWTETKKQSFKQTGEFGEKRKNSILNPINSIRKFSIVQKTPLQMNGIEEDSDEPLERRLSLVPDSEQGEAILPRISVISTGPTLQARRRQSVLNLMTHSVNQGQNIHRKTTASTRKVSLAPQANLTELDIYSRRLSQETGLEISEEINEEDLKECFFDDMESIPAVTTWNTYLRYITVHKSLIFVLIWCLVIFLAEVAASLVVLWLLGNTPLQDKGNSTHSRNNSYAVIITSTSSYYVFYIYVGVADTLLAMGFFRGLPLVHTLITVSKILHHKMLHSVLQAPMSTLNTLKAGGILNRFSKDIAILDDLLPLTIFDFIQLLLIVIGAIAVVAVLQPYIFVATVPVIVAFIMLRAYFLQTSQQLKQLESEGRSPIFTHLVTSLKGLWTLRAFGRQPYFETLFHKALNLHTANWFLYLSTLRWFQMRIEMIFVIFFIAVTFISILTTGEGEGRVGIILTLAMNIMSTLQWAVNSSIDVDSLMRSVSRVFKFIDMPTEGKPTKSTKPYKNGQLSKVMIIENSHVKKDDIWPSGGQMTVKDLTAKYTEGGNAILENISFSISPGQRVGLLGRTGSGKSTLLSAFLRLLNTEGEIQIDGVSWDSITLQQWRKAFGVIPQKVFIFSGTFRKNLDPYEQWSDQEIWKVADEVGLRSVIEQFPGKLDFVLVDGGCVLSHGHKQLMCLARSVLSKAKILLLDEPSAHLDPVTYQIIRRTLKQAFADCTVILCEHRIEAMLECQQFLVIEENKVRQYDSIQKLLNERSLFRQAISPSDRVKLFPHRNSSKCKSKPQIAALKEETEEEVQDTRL
Format: cell-based
Procedure: Primary lung epithelial cells homozygous for the Cystic Fibrosis-causing ΔF508 mutation were differentiated for a minimum of 4 weeks in an air-liquid interface on Costar 24 well HTS filter plates prior to the equivalent current (Ieq) measurements. Cells were apically mucus-washed for 30 minutes 24 h prior to treatment with compounds. The basolateral media was removed and replaced with media containing the compound of interest diluted to its final concentration from DMSO stocks. Treated cells were incubated at 37° C. and 5% CO2 for 24 hours. At the end of the treatment period, the media was changed to the Ieq experimental solution for 30 minutes before the experiment and plates are maintained in a CO2-free incubator during this period. The plates containing the cells were then placed in pre-warmed heating blocks at 36° C.±0.5 for 15 minutes before measurements are taken. The transepithelial voltage (VT) and conductance (GT) were measured using a custom 24 channel current clamp (TECC-24) with 24 well electrode manifold. The Ieq assay measurements were made following additions with standardized time periods: • 1. The baseline VT and GT values were measured for approximately 20 minutes. • 2. Benzamil was added to block ENaC for 15 minutes. • 3. Forskolin plus VX-770 were added to maximally activate ΔF508-CFTR for 27 minutes. • 4. Bumetanide was added to inhibit the NaK2Cl cotransporter and shut-off secretion of chloride.
The activity data captured was the area under the curve (AUC) for the traces of the equivalent chloride current. The AUC was collected from the time of the forskolin/VX-770 addition until the inhibition by bumetanide addition. Correction in response to compound treatment was scored as the increase in the AUC for compound-treated samples over that of vehicle-treated samples.
The results are shown below in Table 2. ++ indicates activity ≥25% run at 10 uM of VX-809 at 1 uM, + indicates activity 10 to <25% run at 10 uM of VX-809 at 1 uM, **indicates activity ≥200% of VX-809 (1 uM) with compound at 10 uM and VX-809 at 1 uM; * indicates activity 100-200% of VX-809 (1 uM) with compound at 10 uM and VX-809 at 1 uM. ^## indicates activity ≥200% of VX-809 (3 uM) with compound at 10 uM and VX-809 at 3 uM; ^# indicates activity 100-200% of VX-809 (3 uM) with compound at 10 uM and VX-809 at 3 uM.

Q: For `CC(OC1CCC1)c1nnc([C@H]2C[C@H](NC(=O)c3cc(-c4ccccc4)no3)C2)o1` (relative stereo) [Example 17, N-(trans-3-(5-(1-cyclobutoxyethyl)-1,3,4-oxadiazol-2-yl)cyclobutyl)-3-phenylisoxazole-5-carboxamide], which Ieq is on record?
A: Its Ieq is “* (* indicates activity 100-200% of VX-809 (1 uM) with compound at 10 uM and VX-809 at 1 uM)”.

Q: `CC(OCC(F)(F)F)c1nnc(C2CC(NC(=O)c3cc(-c4ccccc4)no3)C2)o1` (single isomer, unassigned) [Example 15] was tested. Which Ieq did it give?
A: Its Ieq is “* (* indicates activity 100-200% of VX-809 (1 uM) with compound at 10 uM and VX-809 at 1 uM)”.

Q: With `Cn1nccc1CCCNC(=O)c1cc(-c2ccccc2)no1` [Example 7, N-(3-(1-methyl-1H-pyrazol-5-yl)propyl)-3-phenylisoxazole-5-carboxamide] as the compound, how does the Ieq read?
A: Its Ieq is “* (* indicates activity 100-200% of VX-809 (1 uM) with compound at 10 uM and VX-809 at 1 uM)”.

Q: For `O=C(NC1CC1)c1cc(-c2ccccc2)co1` [Example 12, N-cyclopropyl-4-phenylfuran-2-carboxamide], which Ieq is on record?
A: The Ieq was “* (* indicates activity 100-200% of VX-809 (1 uM) with compound at 10 uM and VX-809 at 1 uM)”.

Q: For `CO[C@H](C)c1nnc([C@H]2C[C@H](NC(=O)c3cc(-c4ccccc4)no3)C2)o1` [Example 14, N-(trans-3-(5-((R)-1-methoxyethyl)-1,3,4-oxadiazol-2-yl)cyclobutyl)-3-phenylisoxazole-5-carboxamide], which Ieq is on record?
A: The Ieq was “* (* indicates activity 100-200% of VX-809 (1 uM) with compound at 10 uM and VX-809 at 1 uM)”.

Q: `C[C@@H](OCC1CN(C)C1)c1nnc([C@H]2C[C@H](NC(=O)c3cc(-c4ccccc4)no3)C2)o1` [Example 20, N-(trans-3-(5-((R)-1-((1-methylazetidin-3-yl)methoxy)ethyl)-1,3,4-oxadiazol-2-yl)cyclobutyl)-3-phenylisoxazole-5-carboxamide] was tested. Which Ieq did it give?
A: Its Ieq is “* (* indicates activity 100-200% of VX-809 (1 uM) with compound at 10 uM and VX-809 at 1 uM)”.

Q: `CN1CC(c2nnc([C@H]3C[C@H](NC(=O)c4cc(-c5ccccc5)no4)C3)o2)C1` [Example 21, N-(trans-3-(5-(1-methylazetidin-3-yl)-1,3,4-oxadiazol-2-yl)cyclobutyl)-3-phenylisoxazole-5-carboxamide trifluoroacetate] was tested. Which Ieq did it give?
A: The Ieq was “* (* indicates activity 100-200% of VX-809 (1 uM) with compound at 10 uM and VX-809 at 1 uM)”.

Q: For `O=C(NC1CC(c2nnc(C3COC3)o2)C1)c1cc(-c2ccccc2)no1` (stereo not drawn) [Example 22, N-trans-3-(5-(oxetan-3-yl)-1,3,4-oxadiazol-2-yl)cyclobutyl)-3-phenylisoxazole-5-carboxamide], which Ieq is on record?
A: The Ieq was “* (* indicates activity 100-200% of VX-809 (1 uM) with compound at 10 uM and VX-809 at 1 uM)”.

Q: How did the Ieq turn out when `O=C(N[C@H]1C[C@H](c2nnc(C3CS(=O)(=O)C3)o2)C1)c1cc(-c2ccccc2)no1` [Example 23, N-(trans-3-(5-(1,1-dioxidothietan-3-yl)-1,3,4-oxadiazol-2-yl)cyclobutyl)-3-phenylisoxazole-5-carboxamide] was run?
A: Its Ieq is “* (* indicates activity 100-200% of VX-809 (1 uM) with compound at 10 uM and VX-809 at 1 uM)”.

Q: `CN1CCC(N2CC(c3nnc(C4CC(NC(=O)c5cc(-c6ccccc6)no5)C4)o3)C2)CC1` (stereo not drawn) [Example 24, N-cis-(3-(5-(1-(1-methylpiperidin-4-yl)azetidin-3-yl)-1,3,4-oxadiazol-2-yl)cyclobutyl)-3-phenylisoxazole-5-carboxamide] was tested. Which Ieq did it give?
A: Its Ieq is “* (* indicates activity 100-200% of VX-809 (1 uM) with compound at 10 uM and VX-809 at 1 uM)”.

Q: Which Ieq does the source give for `O=C(N[C@H]1C[C@H](c2nnc(C3CN(CC4CCC4)C3)o2)C1)c1cc(-c2ccccc2)no1` [Example 27, N-(trans-3-(5-(1-(cyclobutylmethyl)azetidin-3-yl)-1,3,4-oxadiazol-2-yl)cyclobutyl)-3-phenylisoxazole-5-carboxamide] here?
A: Its Ieq is “* (* indicates activity 100-200% of VX-809 (1 uM) with compound at 10 uM and VX-809 at 1 uM)”.

Q: `O=C(N[C@H]1C[C@@H](n2nncc2CO)C1)c1cc(-c2ccccc2)no1` [Example 28, N-(cis-3-(5-(hydroxymethyl)-1H-1,2,3-triazol-1-yl)cyclobutyl)-3-phenylisoxazole-5-carboxamide] was tested. Which Ieq did it give?
A: Its Ieq is “** (**indicates activity ≥200% of VX-809 (1 uM) with compound at 10 uM and VX-809 at 1 uM)”.

Q: Which Ieq does the source give for `O=C(N[C@H]1C[C@@H](n2cc(CO)nn2)C1)c1cc(-c2ccccc2)no1` [Example 29, N-(cis-3-(4-(hydroxymethyl)-1H-1,2,3-triazol-1-yl)cyclobutyl)-3-phenylisoxazole-5-carboxamide] here?
A: Its Ieq is “** (**indicates activity ≥200% of VX-809 (1 uM) with compound at 10 uM and VX-809 at 1 uM)”.

Q: Which Ieq does the source give for `C[C@@H](O)c1nnc([C@H]2C[C@H](NC(=O)c3cc(-c4ccc(F)cc4)no3)C2)o1` [Example 36, 3-(4-fluorophenyl)-N-(trans-3-(5-((R)-1-hydroxyethyl)-1,3,4-oxadiazol-2-yl)cyclobutyl)isoxazole-5-carboxamide] here?
A: The Ieq was “* (* indicates activity 100-200% of VX-809 (1 uM) with compound at 10 uM and VX-809 at 1 uM)”.

Q: Which Ieq does the source give for `C[C@@H](O)c1nnc(CC2CC(NC(=O)c3cc(-c4ccccc4)no3)C2)o1` (stereo partly drawn) [Example 37, N-((1S,3s)-3-((5-((R)-1-hydroxyethyl)-1,3,4-oxadiazol-2-yl)methyl)cyclobutyl)-3-phenylisoxazole-5-carboxamide] here?
A: The Ieq was “** (**indicates activity ≥200% of VX-809 (1 uM) with compound at 10 uM and VX-809 at 1 uM)”.

Q: How did the Ieq turn out when `C[C@@H](O)c1nnc(CC2CC(NC(=O)c3cc(-c4ccc(F)cc4)no3)C2)o1` (stereo partly drawn) [Example 40, 3-(4-Fluorophenyl)-N-[(1r,3r)-3-([5-[(1R)-1-hydroxyethyl]-1,3,4-oxadiazol-2-yl]methyl)cyclobutyl]-1,2-oxazole-5-carboxamide] was run?
A: The Ieq was “** (**indicates activity ≥200% of VX-809 (1 uM) with compound at 10 uM and VX-809 at 1 uM)”.

Q: Which Ieq does the source give for `C[C@@H](O)c1nnc(C[C@H]2C[C@@H](NC(=O)c3cc(-c4ccccc4)no3)C2)s1` [Example 41, 3-Phenyl-N-[(1s,3s)-3-([5-[(1R)-1-hydroxyethyl]-1,3,4-thiadiazol-2-yl]methyl)cyclobutyl]-1,2-oxazole-5-carboxamide] here?
A: Its Ieq is “** (**indicates activity ≥200% of VX-809 (1 uM) with compound at 10 uM and VX-809 at 1 uM)”.

Same assay, conditions: compound run at 10 uM, activity relative to VX-809 at 1 uM; AUC of equivalent chloride current; primary lung epithelial cells homozygous for ΔF508, 24 h treatment

Q: For `COCCNC(=O)c1cc(-c2ccccc2)no1` [Example 1, N-(2-methoxyethyl)-3-phenylisoxazole-5-carboxamide], which Ieq is on record?
A: Its Ieq is “++ (++ indicates activity ≥25% run at 10 uM of VX-809 at 1 uM)”.

Q: For `O=C(NCC1CCCO1)c1cc(-c2ccccc2)no1` (stereo not drawn) [Example 2, 3-phenyl-N-((tetrahydrofuran-2-yl)methyl)isoxazole-5-carboxamide], which Ieq is on record?
A: The Ieq was “++ (++ indicates activity ≥25% run at 10 uM of VX-809 at 1 uM)”.

Q: For `O=C(NCCN1CCOCC1)c1cc(-c2ccccc2)no1` [Example 3, N-(2-morpholinoethyl)-3-phenylisoxazole-5-carboxamide], which Ieq is on record?
A: Its Ieq is “++ (++ indicates activity ≥25% run at 10 uM of VX-809 at 1 uM)”.

Q: Which Ieq does the source give for `O=C(NCCCn1ccnc1)c1cc(-c2ccccc2)no1` [Example 4, N-(3-(1H-imidazol-1-yl)propyl)-3-phenylisoxazole-5-carboxamide] here?
A: Its Ieq is “+ (+ indicates activity 10 to <25% run at 10 uM of VX-809 at 1 uM)”.

Q: How did the Ieq turn out when `Cn1nccc1CCCNC(=O)c1cc(-c2ccccc2)no1` [Example 7, N-(3-(1-methyl-1H-pyrazol-5-yl)propyl)-3-phenylisoxazole-5-carboxamide] was run?
A: Its Ieq is “++ (++ indicates activity ≥25% run at 10 uM of VX-809 at 1 uM)”.

Q: `COCCNC(=O)c1cc(-c2ccccc2)co1` [Example 8, N-(2-methoxyethyl)-4-phenylfuran-2-carboxamide] was tested. Which Ieq did it give?
A: Its Ieq is “+ (+ indicates activity 10 to <25% run at 10 uM of VX-809 at 1 uM)”.

Q: `O=C(NCC1CCCO1)c1cc(-c2ccccc2)co1` (stereo not drawn) [Example 9, 4-phenyl-N-((tetrahydrofuran-2-yl)methyl)furan-2-carboxamide] was tested. Which Ieq did it give?
A: The Ieq was “++ (++ indicates activity ≥25% run at 10 uM of VX-809 at 1 uM)”.

Q: With `O=C(NCCN1CCOCC1)c1cc(-c2ccccc2)co1` [Example 10, N-(2-morpholinoethyl)-4-phenylfuran-2-carboxamide] as the compound, how does the Ieq read?
A: Its Ieq is “+ (+ indicates activity 10 to <25% run at 10 uM of VX-809 at 1 uM)”.

Q: How did the Ieq turn out when `O=C(NCCCn1ccnc1)c1cc(-c2ccccc2)co1` [Example 11, N-(3-(1H-imidazol-1-yl)propyl)-4-phenylfuran-2-carboxamide] was run?
A: The Ieq was “++ (++ indicates activity ≥25% run at 10 uM of VX-809 at 1 uM)”.

Q: How did the Ieq turn out when `O=C(NC1CC1)c1cc(-c2ccccc2)co1` [Example 12, N-cyclopropyl-4-phenylfuran-2-carboxamide] was run?
A: Its Ieq is “++ (++ indicates activity ≥25% run at 10 uM of VX-809 at 1 uM)”.
